Measured values published in the supplement of paper PMC5908809.

Tests used:
[1] = system: normal NK cells expanded with K562-aAPC; experiment: drug sensitivity score (DSS) (DSS units); higher = more sensitive; extreme values may be limits of the assay; conditions: 72 h; IL-2 2.5 ng/mL
Procedure: (§1)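 Drug sensitivity and resistance testing on K562-aAPC-expanded normal NK cells: 5 concentrations (10-fold steps over a 10,000-fold range), 72 h at 37 °C, viability by CellTiter-Glo normalised to DMSO and benzethonium chloride controls; DSS from the fitted curve.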

[2] = system: NK-92 (IL-2 2.5 ng/mL); experiment: as above; conditions: 72 h
[3] = system: NK-YS (IL-2 2.5 ng/mL); experiment: as above; conditions: 72 h
[4] = system: IMC-1 (IL-2 20 ng/mL); experiment: as above; conditions: 72 h
[5] = system: DERL-7 (IL-2 2.5 ng/mL); experiment: as above; conditions: 72 h
[6] = system: YT (IL-2 2.5 ng/mL); experiment: as above; conditions: 72 h
[7] = system: SNK-6 (IL-2 2.5 ng/mL); experiment: as above; conditions: 72 h
[8] = system: normal primary NK cells, pool 1 (3 donors), resting (IL-2 0 ng/mL); experiment: as above; conditions: 72 h
[9] = system: normal primary NK cells, pool 3 (3 donors) (IL-2 2.5 ng/mL); experiment: as above; conditions: 72 h
[10] = system: normal primary NK cells, pool 2 (3 donors) (IL-2 2.5 ng/mL); experiment: as above; conditions: 72 h
[11] = system: KHYG-1 (IL-2 2.5 ng/mL); experiment: as above; conditions: 72 h
[12] = system: KAI3 (IL-2 2.5 ng/mL); experiment: as above; conditions: 72 h
[13] = system: normal primary NK cells, pool 1 (3 donors) (IL-2 2.5 ng/mL); experiment: as above; conditions: 72 h
[14] = system: NKL (IL-2 2.5 ng/mL); experiment: as above; conditions: 72 h
[15] = system: normal NK cells expanded with K562-aAPC; experiment: percent inhibition of viability; higher = more inhibition; conditions: 72 h, IL-2 2.5 ng/mL
Procedure: as §1

[16] = system: NK-92 (IL-2 2.5 ng/mL); experiment: as above; conditions: 72 h
[17] = system: NK-YS (IL-2 2.5 ng/mL); experiment: as above; conditions: 72 h
[18] = system: IMC-1 (IL-2 20 ng/mL); experiment: as above; conditions: 72 h
[19] = system: DERL-7 (IL-2 2.5 ng/mL); experiment: as above; conditions: 72 h
[20] = system: YT (IL-2 2.5 ng/mL); experiment: as above; conditions: 72 h
[21] = system: SNK-6 (IL-2 2.5 ng/mL); experiment: as above; conditions: 72 h
[22] = system: normal primary NK cells, pool 1 (3 donors), resting (IL-2 0 ng/mL); experiment: as above; conditions: 72 h
[23] = system: normal primary NK cells, pool 3 (3 donors) (IL-2 2.5 ng/mL); experiment: as above; conditions: 72 h
[24] = system: normal primary NK cells, pool 2 (3 donors) (IL-2 2.5 ng/mL); experiment: as above; conditions: 72 h
[25] = system: KHYG-1 (IL-2 2.5 ng/mL); experiment: as above; conditions: 72 h
[26] = system: KAI3 (IL-2 2.5 ng/mL); experiment: as above; conditions: 72 h
[27] = system: normal primary NK cells, pool 1 (3 donors) (IL-2 2.5 ng/mL); experiment: as above; conditions: 72 h
[28] = system: NKL (IL-2 2.5 ng/mL); experiment: as above; conditions: 72 h

CC(C)Cn1cnc2c(N)nc3ccccc3c21 [Imiquimod] (max concentration tested 2500 nM)
Conditions | drug sensitivity score
[1] | 1.27
[2] | 0.3
[3] | 0.38
[4] | 1.48
[5] | 0
[6] | 0
[7] | 9.47
[8] | 0
[9] | 0
[10] | 0.45
[11] | 0.26
[12] | 0.57
[13] | 0
[14] | 0

percent inhibition of viability [%]
Conditions | 0.25 nM | 2.5 nM | 25 nM | 250 nM | 2500 nM
[15] | -2.97 | -4.12 | -1.05 | 14.8 | 11.3
[16] | -7.9 | -11.3 | -5.41 | 5.55 | 12.3
[17] | -0.76 | -2.23 | 5.71 | 6 | 16.1
[18] | 2.11 | -3.32 | 4.26 | 10.8 | 22.2
[19] | -5 | 4.44 | -3.41 | 4.83 | -1.82
[20] | -4.4 | -3 | 5.75 | 3.31 | 4.52
[21] | 10.3 | -13.6 | 12.2 | 44 | 57.8
[22] | -4.66 | 7.46 | -14.7 | -14.5 | -19.1
[23] | -14.7 | -9.92 | -6.17 | -5.82 | 6.93
[24] | -8 | -6.73 | -8.32 | -4.68 | 20.8
[25] | -3 | -3.08 | 2.45 | 6.32 | 13.8
[26] | -2.07 | -8.41 | 6.25 | 5.37 | 17.9
[27] | -14.4 | 5.91 | -7.15 | -9.14 | 5.82
[28] | -2.54 | -14.7 | -1.93 | 3.67 | 1.08

Cc1cc2c(F)c(Oc3ncnn4cc(OC[C@@H](C)O)c(C)c34)ccc2[nH]1 [Brivanib] (max concentration tested 1000 nM)
Conditions | drug sensitivity score
[1] | 0
[2] | 0
[3] | 0.18
[4] | 0
[5] | 0
[6] | 0
[7] | 0
[8] | 0
[9] | 0
[10] | 0
[11] | 0
[12] | 0
[13] | 0
[14] | 0

percent inhibition of viability [%]
Conditions | 0.1 nM | 1 nM | 10 nM | 100 nM | 1000 nM
[15] | 0.76 | -1.44 | 1.84 | -3.64 | -2.22
[16] | -10.1 | -9.6 | -3.98 | -10.2 | -5.2
[17] | -2 | -5.08 | -6.17 | 0.88 | 13.4
[18] | -8.23 | -2.37 | -10.1 | -3.91 | -8.67
[19] | 0.94 | 7.48 | -2.36 | 3.07 | -1.62
[20] | -2.1 | -2.63 | -1.47 | -0.95 | -3.56
[21] | 5.84 | -0.07 | 3.56 | 8.94 | 4.87
[22] | -11.7 | -6.81 | 7.63 | -9.3 | -5.72
[23] | -9.42 | -10.1 | -12.4 | -11 | -7.07
[24] | -6.73 | -10 | -9.37 | -10.3 | -8.25
[25] | -4.66 | -2.28 | -3.77 | -3.68 | -5.25
[26] | -2.86 | 1.99 | -5.53 | -0.99 | -2.38
[27] | -8.41 | -6.09 | 4.52 | -3.63 | -4.56
[28] | -11.2 | -9.83 | -21.6 | -12.1 | -10.2
